Data set [1] concerns mice. Briefly: Acute toxicity after oral administration of a single dose. It counts as in vivo. The conditions noted are these: mouse, oral single dose 250 mg/kg, observation time 7 days. Here is the method: (§1) The acute toxicity was determined in groups of 5 mice each after oral administration of a single dose of 250 mg/kg (observation time: 7 days). The test compound was suspended in 2% methyl cellulose, and after addition of some water, each substance was administered to the conscious animals by means of a stomach tube.

Test in data set [2]: as above
The conditions noted are these: in vivo; mouse, oral single dose 250 mg/kg, 5 mice each, observation time 7 days; read-out: Acute toxicity per os. It counts as in vivo. Here is the method: as §1

For data set [3], the system named is thrombocytes. Briefly: Collagen-induced aggregation of thrombocytes in human platelet-rich plasma (Born and Cross). The note with it: 10 min, platelet-rich plasma of healthy human subjects, incubated 10 minutes at 37° C. before collagen, determined graphically, read-out: EC50 (dosage producing 50% inhibition of the thrombocyte aggregation). It counts as cell-based. Here is the method:
The aggregation of thrombocytes was measured according to the method of BORN and CROSS [J. Physiol. 170, 397 (1964)] in the platelet-rich plasma of healthy human test subjects. To inhibit coagulation, the blood was admixed with a 3.14% sodium citrate solution in a volumetric ration of 1:10.
The decrease in optical density was measured and recorded photometrically after the addition of the aggreation-inducing substance. From the angle of inclination of the density curve, the rate of aggregation was estimated (Vmax). The optical density was taken as the point on the curve where the most light was transmitted (O.D.).
Small doses of collagen were chosen, but sufficient to give irreversible aggregation. (Commercial collagen of Hormonchemie, Munich, Germany.)
Before the addition of collagen, the plasma was incubated with the substance for 10 minutes at 37° C.,
The dosage of the test compound which produced a 50% inhibition of the thrombocyte aggregation was determined graphically (EC50).

Where only a bound is given, the exact number is not on record here.

Consider `[O-][S+]1CCN(c2nc(N3CCNCC3)nc3c(NCc4ccccc4)ncnc23)CC1` [R, 8-Benzylamino-4-(1-oxido-thiomorpholino)-2-piperazino-pyrimido-[5,4-d]-pyrimidine], for which the animals died in data set [1] is recorded as 0 out of 5 animals. In addition, the LD50 at 168 h in data set [2] was greater than 250 mg/kg. Moreover, in data set [3], the EC50 (commonly the concentration at which the effect is half-maximal) was found to be 4.2 nM.
The corresponding values for `CN1CCN(c2nc(N3CC[S+]([O-])CC3)c3ncnc(SCc4ccccc4)c3n2)CC1` [K, 8-Benzylthio-2-(N-methyl-piperazino)-4-(1-oxido-thio-morpholino)-pyrimido-[5,4-d]-pyrimidine] are 0 out of 5 animals, greater than 250 mg/kg and 350 nM.
As to `O=C(c1ccco1)N1CCN(c2nc(N3CCOCC3)c3ncnc(SCc4ccccc4)c3n2)CC1` [H, 8-Benzylthio-2-[N-(2-furoyl)-piperazino]-4-morpholino-pyrimido-[5,4-d]-pyrimidine], the animals died in data set [1] was 0 out of 5 animals. In addition, the LD50 at 168 h in data set [2] is greater than 250 mg/kg. Further, the EC50 in data set [3] came to 100 nM.
The corresponding values for `c1ccc(CNc2ncnc3c(N4CCSCC4)nc(N4CCNCC4)nc23)cc1` [T, 8-Benzylamino-2-piperazino-4-thiomorpholino-pyrimido-[5,4-d]-pyrimidine] are 0 out of 5 animals, greater than 250 mg/kg and 250 nM.
The like results for `CN(Cc1ccccc1)c1ncnc2c(N3CC[S+]([O-])CC3)nc(N3CCN(C=O)CC3)nc12` [U, 8-(N-Benzyl-methylamino)-2-(N-formyl-piperazino)-4-(1-oxido-thiomorpholino)-pyrimido-[5,4-d]-pyrimidine] were, in that order, 1 out of 5 animals, greater than 250 mg/kg and 290 nM.
The like results for `[O-][S+]1CCN(c2nc(N3CCNCC3)nc3c(SCCO)ncnc23)CC1` [O, 8-(2-Hydroxyethyl-thio)-4-(1-oxido-thiomorpholino)-2-piperazino-pyrimido-[5,4-d]-pyrimidine] were, in that order, 0 out of 5 animals, greater than 250 mg/kg and 28 nM.
As to `[O-][S+]1CCN(c2nc(N3CCNCC3)nc3c(OCc4ccccc4)ncnc23)CC1` [Q, 8-Benzyloxy-4-(1-oxido-thiomorpholino)-2-piperazino-pyrimido-[5,4-d]-pyrimidine], the animals died in data set [1] is on record as 0 out of 5 animals. Also, the LD50 at 168 h in data set [2] was greater than 250 mg/kg. In addition, in data set [3], the EC50 was determined as 3.6 nM.
The corresponding values for `O=CN1CCN(c2nc(N3CC[S+]([O-])CC3)c3ncnc(SCc4ccccc4)c3n2)CC1` [M, 8-Benzylthio-2-(N-formyl-piperazino)-4-(1-oxido-thiomorpholino)-pyrimido-[5,4-d]-pyrimidine] are 0 out of 5 animals, greater than 250 mg/kg and 15 nM.
The corresponding values for `CN(Cc1ccccc1)c1ncnc2c(N3CC[S+]([O-])CC3)nc(N3CCNCC3)nc12` [S, 8-(N-Benzyl-methylamino)-4-(1-oxido-thiomorpholino)-2-piperazino-pyrimido-[5,4-d]-pyrimidine] are 0 out of 5 animals, greater than 250 mg/kg and 3 nM.
The corresponding values for `CCN(CC)CCSc1ncnc2c(N3CC[S+]([O-])CC3)nc(N3CCNCC3)nc12` [G, 8-(2-Diethylaminoethyl-thio)-4-(1-oxido-thiomorpholino)-2-piperazino-pyrimido-[5,4-d]-pyrimidine] are 0 out of 5 animals, greater than 250 mg/kg and 20 nM.
`OCCOc1ncnc2c(N3CCOCC3)nc(N3CCNCC3)nc12` [N, 8-(2-Hydroxyethoxy)-4-morpholino-2-piperazino-pyrimido-[5,4-d]-pyrimidine]: in data set [3], the EC50 was determined as 40 nM.
As for `c1ccc(CSc2ncnc3c(N4CCOCC4)nc(N4CCNCC4)nc23)cc1` [C, 8-Benzylthio-4-morpholino-2-piperazino-pyrimido-[5,4-d]-pyrimidine], the animals died in data set [1] is 0 out of 5 animals. Moreover, in data set [2], the LD50 at 168 h is greater than 250 mg/kg. Further, the EC50 in data set [3] turned out to be 8.5 nM.
Take `[O-][S+]1CCN(c2nc(N3CCNCC3)nc3c(SCCc4ccccc4)ncnc23)CC1` [Compound E, 4-(1-Oxido-thiomorpholino)-8-phenethylthio-2-piperazino-pyrimido-[5,4-d]-pyrimidine]: the animals died in data set [1] is 0 out of 5 animals. Moreover, the LD50 at 168 h in data set [2] is greater than 250 mg/kg. For the same compound, in data set [3], the EC50 stood at 22 nM.
In the case of `c1ccc(Sc2ncnc3c(N4CCSCC4)nc(N4CCNCC4)nc23)cc1` [P, 8-Phenylthio-2-piperazino-4-thiomorpholino-pyrimido-[5,4-d]-pyrimidine], the EC50 in data set [3] is roughly 100 nM.
On to `[O-][S+]1CCN(c2nc(N3CCNCC3)nc3c(Nc4ccccc4)ncnc23)CC1` [V, 8-Anilino-4-(1-oxido-thiomorpholino)-2-piperazino-pyrimido-[5,4-d]-pyrimidine], for which the animals died in data set [1] is given as 1 out of 5 animals. Further, the LD50 at 168 h in data set [2] was greater than 250 mg/kg. Besides, the EC50 in data set [3] came to 30 nM.
Regarding `CCSc1ncnc2c(N3CC[S+]([O-])CC3)nc(N3CCNCC3)nc12` [B, 8-Ethylthio-4-(1-oxido-thiomorpholino)-2-piperazino-pyrimido-[5,4-d]-pyrimidine], in data set [3], the EC50 was less than 10 nM.
For the compound `Clc1ccc(CSc2ncnc3c(N4CCOCC4)nc(N4CCNCC4)nc23)c(Cl)c1` [L, 8-(2,4-Dichlorobenzyl-thio)-4-morpholino-2-piperazino-pyrimido-[5,4-d]-pyrimidine], the animals died in data set [1] is 0 out of 5 animals. In addition, the LD50 at 168 h in data set [2] was greater than 250 mg/kg. Further, the EC50 in data set [3] was 8 nM.
For the compound `[O-][S+]1CCN(c2nc(N3CCNCC3)nc3c(SCc4ccccc4)ncnc23)CC1` [D, 8-Benzylthio-4-(1-oxido-thiomorpholino)-2-piperazino-pyrimido-[5,4-d]-pyrimidine], the animals died in data set [1] was 0 out of 5 animals. In data set [2], the LD50 at 168 h was greater than 250 mg/kg. Besides, the EC50 in data set [3] was 30 nM.
Consider `CSc1ncnc2c(N3CC[S+]([O-])CC3)nc(N3CCNCC3)nc12` [Compound A, 8-Methylthio-4-(1-oxido-thiomorpholino)-2-piperazino-pyrimido-[5,4-d]-pyrimidine], for which the EC50 in data set [3] was 1 nM.
Regarding `[O-][S+]1CCN(c2nc(N3CCN(CCO)CC3)nc3c(SCc4ccccc4)ncnc23)CC1` [F, 8-Benzylthio-2-[N-(2-hydroxyethyl)-piperazino]-4-(1-oxido-thiomorpholino)-pyrimido-[5,4-d]-pyrimidine], the animals died in data set [1] is listed as 0 out of 5 animals. In data set [2], the LD50 at 168 h was greater than 250 mg/kg. Further, the EC50 in data set [3] amounted to 380 nM.
For `COc1ccc(CSc2ncnc3c(N4CCOCC4)nc(N4CCNCC4)nc23)cc1OC` [I, 8-(3,4-dimethoxybenzyl-thio)-4-morpholino-2-piperazino-pyrimido-[5,4-d]-pyrimidine], in data set [3], the EC50 came out at 10 nM.

(Values after US4690923A, “2-(Perhydro-1,4-diazino)-pyrimido(5,4-D)-pyrimidines, pharmaceutical compositions and use” (Karl Thomae GmbH, priority 1979, dated 1987).)
